Experimental findings from patent US8044198B2, “Sirtuin modulating compounds” (Sirtris Pharmaceuticals, Inc., priority 2005, dated 2011) are described below.

This test deals with T1, SIRT1 (Homo sapiens, UniProt Q96EB6).
T1 sequence (Q96EB6 1-747): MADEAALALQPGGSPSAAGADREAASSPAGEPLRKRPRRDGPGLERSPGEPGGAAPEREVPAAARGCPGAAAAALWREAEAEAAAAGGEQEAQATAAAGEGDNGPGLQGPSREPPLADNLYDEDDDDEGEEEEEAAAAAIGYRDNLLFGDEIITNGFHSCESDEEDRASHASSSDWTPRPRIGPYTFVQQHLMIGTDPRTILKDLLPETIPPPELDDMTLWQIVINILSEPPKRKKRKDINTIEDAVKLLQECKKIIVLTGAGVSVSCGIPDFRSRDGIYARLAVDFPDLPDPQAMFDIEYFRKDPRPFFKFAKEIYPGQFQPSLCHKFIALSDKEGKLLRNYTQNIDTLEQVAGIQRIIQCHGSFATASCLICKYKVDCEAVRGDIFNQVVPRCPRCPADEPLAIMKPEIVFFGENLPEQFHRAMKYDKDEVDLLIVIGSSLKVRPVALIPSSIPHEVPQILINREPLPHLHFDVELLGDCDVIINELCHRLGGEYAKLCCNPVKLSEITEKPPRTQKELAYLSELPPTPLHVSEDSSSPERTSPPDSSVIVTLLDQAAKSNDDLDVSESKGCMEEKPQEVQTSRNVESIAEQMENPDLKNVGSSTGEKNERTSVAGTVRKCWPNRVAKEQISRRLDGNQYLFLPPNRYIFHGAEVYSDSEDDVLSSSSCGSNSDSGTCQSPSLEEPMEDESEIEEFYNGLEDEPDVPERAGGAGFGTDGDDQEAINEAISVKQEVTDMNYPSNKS
In words: SIRT1 mass spectrometry (MS) based deacetylation assay. On FOLD ACT. MS: test concentration or dose not given here. It counts as biochemical. The conditions noted are these: for EC50: mass spectrometry assay, read-out: ED50 MS ASSAY.

Where [1] appears, read: fold activation of SIRT1 as determined by MS.
Where [2] appears, read: fold activation of SIRT1, mass spectrometry assay.
Setting [3] is: Sirt1 activators, fold activation as determined by MS.
The mark [4] stands for this setting: SIRT1 fold activation as determined by MS.

Molecules are shown by their SMILES. Like-named read-outs stand apart in the source and are kept apart here.

On to `COc1cc(SC)ccc1C(=O)Nc1cccc(-c2nncn2C)c1` [Compound 83], for which, for the setting “SIRT1 activation”, the EC50 is 5 to 50 µM. The “FOLD ACT. MS” value under setting [1] is recorded as “B (B (Fold Activation <250%))”. Regarding `COc1ccc(C(=O)Nc2cccc(-c3nc4cnccc4s3)c2)c(OC)c1` [Compound 272], the EC50 (SIRT1 activation) is < 5 µM. In addition, the “FOLD ACT. MS” value under setting [2] was “B (B (Fold Activation <250%))”. Turning to `COc1ccc(C(=O)Nc2ccc(-c3nc4ccncc4o3)s2)c(OC)c1` [Compound 561], the “FOLD ACT. MS” value under setting [3] is “B (B (Fold Activation <250%))”. Besides, where the note is “Sirt1 activators”, the EC50 is < 5 µM. As for `O=C(Nc1ccccc1-c1nc2cccnc2[nH]1)c1ccc(N2CCOCC2)cc1` [Compound 526], the “FOLD ACT. MS” value under setting [3] is “A (A (Fold activation >250%))”. Further, the EC50 (Sirt1 activators) was < 5 µM. As to `COc1cc(C(=O)Nc2ccc(-c3nc4ccccc4[nH]3)cc2)cc(OC)c1OC` [Compound 263], the EC50 (SIRT1 activation) lay in the range of 5 to 50 µM. Also, the “FOLD ACT. MS” value under setting [2] is recorded as “B (B (Fold Activation <250%))”. `Cc1ccc2oc(-c3cccc(NC(=O)c4cccc(N(C)C)c4)c3)nc2n1` [Compound 167]: the EC50 (SIRT1 activation) fell in the range of 5 to 50 µM. The “FOLD ACT. MS” value under setting [1] is “B (B (Fold Activation <250%))”. `COc1cc(C(=O)Nc2ccccc2-c2nc3ncccc3o2)ccc1CN1CCN(C)CC1` [Compound 632]: under setting [3], the “FOLD ACT. MS” value is given as “A (A (Fold activation >250%))”. Besides, the EC50 (Sirt1 activators) was 5 to 50 µM. In the case of `O=C(Nc1ccccc1-c1nc2ccncc2s1)c1ccc(Oc2ccccc2)nc1` [Compound 392], the EC50 (SIRT1 activation) was 5 to 50 µM. Also, the “FOLD ACT. MS” value under setting [2] is reported as “B (B (Fold Activation <250%))”. For `COc1cc(C(=O)Nc2ccccc2-c2nc3ncccc3o2)ccc1CN(C)C` [Compound 630], the “FOLD ACT. MS” value under setting [3] is reported as “A (A (Fold activation >250%))”. Where the note is “Sirt1 activators”, the EC50 was 5 to 50 µM. As to `COc1ccc(C(=O)Nc2ccccc2-c2nc3cnccc3s2)c(OC)c1` [Compound 317], for the setting “SIRT1 activation”, the EC50 is < 5 µM. For the same molecule, the “FOLD ACT. MS” value under setting [2] is “B (B (Fold Activation <250%))”.

On to `CCn1ccc(C(=O)Nc2ccccc2-c2nc3ncccc3o2)n1` [Compound 581], for which the “FOLD ACT. MS” value under setting [3] is listed as “B (B (Fold Activation <250%))”. In addition, for the setting “Sirt1 activators”, the EC50 lay in the range of 5 to 50 µM. As to `CN(C)c1ccc(NC(=O)Nc2cccc(-c3nc4ncccc4o3)n2)cc1` [Compound 87], the EC50 (SIRT1 activation) was > 150 µM. On to `S=C(Nc1ccc(N2CCOCC2)nc1)Nc1cccc(-c2nc3ccncc3s2)c1` [Compound 484], for which the “FOLD ACT. MS” value under setting [3] is recorded as “B (B (Fold Activation <250%))”. Besides, the EC50 (Sirt1 activators) fell in the range of 5 to 50 µM. `CCn1ccc(C(=O)Nc2cc(-c3nc4ncccc4o3)ccn2)n1` [Compound 641]: under setting [3], the “FOLD ACT. MS” value is given as “B (B (Fold Activation <250%))”. The EC50 (Sirt1 activators) was > 150 µM. Regarding `COc1cc(C(=O)Nc2cc(-c3nc4ncccc4o3)ccn2)ccc1CN1CCNCC1` [Compound 638], under setting [3], the “FOLD ACT. MS” value is “B (B (Fold Activation <250%))”. Besides, the EC50 (Sirt1 activators) is > 150 µM. In the case of `COc1cc(OC)cc(C(=O)Nc2ccccc2-c2nc3cc(CN4CCN(C)CC4)cnc3s2)c1` [Compound 725], the EC50 (SIRT1 activation) was < 5 µM. Further, the “FOLD ACT. MS” value under setting [4] was “A (A (Fold activation >250%))”.

For the molecule `O=C(Nc1ccccc1-c1cn2c(CN3CCNCC3)csc2n1)c1c[nH]nc1-c1ccccc1` [Compound 512], the “FOLD ACT. MS” value under setting [3] is listed as “A (A (Fold activation >250%))”. Besides, the EC50 (Sirt1 activators) is < 5 µM. Turning to `COc1cc(NC(=N)Nc2cc(-c3nc4ncccc4o3)ccn2)cc(OC)c1OC` [Compound 635], under setting [3], the “FOLD ACT. MS” value is reported as “A (A (Fold activation >250%))”. Where the note is “Sirt1 activators”, the EC50 was > 150 µM. Turning to `COc1cc(C(=O)Nc2ccccc2-c2cnc3ccccc3c2)cc(OC)c1OC` [Compound 415], under “SIRT1 activation”, the EC50 fell in the range of 51 to 100 µM. For the same molecule, the “FOLD ACT. MS” value under setting [2] is “B (B (Fold Activation <250%))”. Turning to `O=C(Nc1ccccc1-c1nc2cc(CN3CCNCC3)cnc2s1)c1ccc2c(c1)OCO2` [Compound 590], the “FOLD ACT. MS” value under setting [3] is given as “B (B (Fold Activation <250%))”. Besides, where the note is “Sirt1 activators”, the EC50 lay in the range of 5 to 50 µM. As for `O=C(Nc1ccccc1-c1cn2c(C(=O)O)csc2n1)c1cnc2ccccc2n1` [Compound 719], the EC50 (SIRT1 activation) fell in the range of 5 to 50 µM. For the same molecule, the “FOLD ACT. MS” value under setting [4] is recorded as “A (A (Fold activation >250%))”.

For the molecule `Cc1nn(-c2ccccc2)nc1C(=O)Nc1ccccc1-c1nc2ccncc2s1` [Compound 390], the EC50 (SIRT1 activation) is 5 to 50 µM. Also, the “FOLD ACT. MS” value under setting [2] is reported as “B (B (Fold Activation <250%))”.

Turning to `O=C(Nc1cccc(-c2nc3ncccc3o2)c1)c1ccccc1` [Compound 56], the EC50 (SIRT1 activation) was in the range of 5 to 50 µM. Besides, the “FOLD ACT. MS” value under setting [1] was “B (B (Fold Activation <250%))”.

Take `COc1cc(C(=O)Nc2ccccc2-c2cccs2)cc(OC)c1OC` [336 10]: the EC50 (SIRT1 activation) was in the range of 5 to 50 µM. For the same molecule, the “FOLD ACT. MS” value under setting [2] is listed as “B (B (Fold Activation <250%))”. Take `FC(F)(F)c1cccc(Cl)c1NC(=S)Nc1cc(-c2nc3ncccc3o2)ccn1` [Compound 667]: the EC50 (Sirt1 activators) lay in the range of 5 to 50 µM. For `CN(C)c1cccc2c(S(=O)(=O)Nc3cccc(-c4nc5ccncc5s4)c3)cccc12` [Compound 398], the EC50 (SIRT1 activation) is 5 to 50 µM. In addition, the “FOLD ACT. MS” value under setting [2] is on record as “B (B (Fold Activation <250%))”. With `CN(C)c1cccc(C(=O)Nc2ccccc2-c2cn3cccnc3n2)c1` [Compound 504], under setting [3], the “FOLD ACT. MS” value was “B (B (Fold Activation <250%))”. For the same molecule, the EC50 (Sirt1 activators) was 5 to 50 µM. For the molecule `O=C(Nc1ccccc1-c1nc2cc(CN3CCOCC3)cnc2s1)c1ccc2c(c1)OCO2` [Compound 683], the EC50 (SIRT1 activation) is 5 to 50 µM. In addition, under setting [4], the “FOLD ACT. MS” value was “B (B (Fold Activation <250%))”. With `O=C(Nc1ccccc1-c1cn2c(CN3CCNCC3)csc2n1)c1cccc(-c2cc[nH]n2)c1` [Compound 733], the EC50 (SIRT1 activation) is < 5 µM. Moreover, the “FOLD ACT. MS” value under setting [4] is recorded as “A (A (Fold activation >250%))”. `CN(C)c1ccc(C(=O)Nc2ccccc2-c2nc3cnccc3s2)cc1` [Compound 320]: the EC50 (SIRT1 activation) is < 5 µM. Moreover, under setting [2], the “FOLD ACT. MS” value is recorded as “B (B (Fold Activation <250%))”. With `COc1ccc(C(=O)Nc2cccc(-c3nc4ncccc4[nH]3)c2)c(OC)c1` [Compound 184], the EC50 (SIRT1 activation) was < 5 µM. Further, the “FOLD ACT. MS” value under setting [1] is given as “B (B (Fold Activation <250%))”. Take `CN(C)c1ccc(C(=O)Nc2cccc(-c3nc4ccncc4o3)c2)cc1` [Compound 431]: where the note is “SIRT1 activation”, the EC50 lay within 5 to 50 µM. Further, the “FOLD ACT. MS” value under setting [2] is listed as “B (B (Fold Activation <250%))”. Consider `COc1cc(C(=O)Nc2ccccc2-c2nc3ncccc3o2)ccc1CN1CCCC1` [Compound 629], for which, under setting [3], the “FOLD ACT. MS” value is listed as “A (A (Fold activation >250%))”. The EC50 (Sirt1 activators) is 5 to 50 µM. As for `COc1cc(C(=O)Nc2ccccc2-c2nc3cccnc3[nH]2)ccc1CN1CCCCC1` [Compound 536], the “FOLD ACT. MS” value under setting [3] is “A (A (Fold activation >250%))”. Also, the EC50 (Sirt1 activators) lay within 5 to 50 µM. For the molecule `COc1ccc(C(=O)Nc2ccccc2-c2cn3ccccc3n2)cc1OC` [Compound 266], the EC50 (SIRT1 activation) is < 5 µM. Under setting [2], the “FOLD ACT. MS” value was “A (A (Fold activation >250%))”.

As for `COc1cc(C(=O)Nc2cccc(-c3nc4ncccn4c3C)c2)cc(OC)c1OC` [Compound 219], for the setting “SIRT1 activation”, the EC50 is 5 to 50 µM. Moreover, the “FOLD ACT. MS” value under setting [2] is reported as “A (A (Fold activation >250%))”.

With `COc1ccc(C(=O)Nc2ccccc2-c2nc3ccccc3[nH]2)cc1OC` [Compound 142], the EC50 (SIRT1 activation) is < 5 µM. Also, the “FOLD ACT. MS” value under setting [1] is reported as “A (A (Fold activation >250%))”. As for `COc1ccc(C(=O)Nc2cccc(-c3nc4cccnc4s3)c2)c(OC)c1` [Compound 213], the EC50 (SIRT1 activation) was < 5 µM. In addition, under setting [1], the “FOLD ACT. MS” value is on record as “B (B (Fold Activation <250%))”.
